Read-outs that look alike come from different tables or passages of the source.
Legend:
[1] = target: T1, EIF2AK3 (PERK) catalytic domain (amino acids 536-1116) (Homo sapiens, UniProt Q9NZJ5); experiment: PERK in vitro activity assay (isolated), TR-FRET kinase assay; format: biochemical; details: isolated PERK enzyme, 1.5 μM ATP; read-out: Biochemical IC50
T1 construct: EIF2AK3 (PERK) catalytic domain (amino acids 536-1116)
T1 sequence (Q9NZJ5 536-1116): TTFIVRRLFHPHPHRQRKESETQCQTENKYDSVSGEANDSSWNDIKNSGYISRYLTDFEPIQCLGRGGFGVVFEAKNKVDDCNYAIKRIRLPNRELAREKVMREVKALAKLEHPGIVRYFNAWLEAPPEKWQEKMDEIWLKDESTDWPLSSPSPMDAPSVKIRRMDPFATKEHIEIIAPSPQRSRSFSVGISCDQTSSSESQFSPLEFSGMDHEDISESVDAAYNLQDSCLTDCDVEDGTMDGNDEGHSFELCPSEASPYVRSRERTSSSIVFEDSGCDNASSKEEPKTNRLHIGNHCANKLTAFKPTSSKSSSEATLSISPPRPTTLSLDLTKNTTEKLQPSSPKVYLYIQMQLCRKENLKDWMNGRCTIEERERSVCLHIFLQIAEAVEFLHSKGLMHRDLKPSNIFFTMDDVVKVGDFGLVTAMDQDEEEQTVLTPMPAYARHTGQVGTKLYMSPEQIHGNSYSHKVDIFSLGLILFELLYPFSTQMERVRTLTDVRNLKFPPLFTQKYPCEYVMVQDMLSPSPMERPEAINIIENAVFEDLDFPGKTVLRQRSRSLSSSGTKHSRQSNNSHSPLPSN
Text: PERK In Vitro Activity Assay (Isolated):
In vitro Inhibition of PERK Enzyme Activity (isolated) Recombinant human EIF2AK2 (PKR) catalytic domain (amino acids 252-551), EIF2AK3 (PERK) catalytic domain (amino acids 536-1116), GFP-eIF2a substrate, and Terbium-labelled phospho-eIF2a antibody is obtained (Invitrogen, Carlsbad, Calif.).
Express and purify HIS-SUMO-GCN2 catalytic domain (amino acids 584-1019) from E. coli. Perform TR-FRET kinase assays in the absence or presence of inhibitors in a reaction buffer consisting of 50 mM HEPES, pH 7.5, 10 mM MgCb, 1.0 mM EGTA, and 0.01% Brij-35, and 100-200 nM GFP-eIF2a substrate. […] Add test compound, initiate the reaction by addition of enzyme, and incubate at room temperature for 45 minutes. Stop the reaction by addition of EDTA to a final concentration of 10 mM, add Terbium-labelled phospho-eIF2a antibody at a final concentration of 2 nM, and incubate for 90 minutes. Monitor the resulting fluorescence in an EnVison® Multilabel reader (PerkinElmer, Waltham, Mass.). Determine TR-FRET ratios and the resulting IC50 values using a 4-parameter nonlinear logistic equation as shown: Y=(A+((B−A)/(1+((C/x)[…])))) where, Y=% specific inhibition, A=Bottom of the curve, B=Top of the curve, C=absolute IC50 (concentration causing 50% inhibition), and D=hill slope.

[2] = test system: GFP-eIF2α in HEK293 cells; experiment: PERK cellular assay, TR-FRET in HEK293-EGFP-eIF2a cells after tunicamycin-induced ER stress; format: cell-based; details: HEK293-EGFP-eIF2a cells, tunicamycin 2 hours, read-out: Cellular eIF2α IC50
Procedure: Stable cell lines were created in HEK293 cells using lentiviral particles harboring an expression vector for GFP-eIF2α. Cells were selected using puromycin and enriched using fluorescence activated cell sorting against GFP. HEK293-EGFP-eIF2a cells were plated at 5000 cells/well in 384-well assay plates and incubated overnight at 37° C., 5% CO2. Inhibitor compounds were added to the wells by Echo acoustic dispensing and incubated for 30 minutes at 37° C., 5% CO2 prior to induction of ER stress by addition of tunicamycin to […] for 2 hours. Cells were lysed and TR-FRET was measured in an EnVision plate reader (PerkinElmer). FRET ratio data was normalized to signal from lysates treated with DMSO vehicle control and plotted as percent inhibition against 10-point; 3-fold dilution series of inhibitors. IC50 values were calculated using 4-parameter logistical fitting in XLFit.

| Compound | IC50 [1] | IC50 [2] | IC50 ([2]; Homo sapiens, HEK293, 2 h) |
| --- | --- | --- | --- |
| Cc1nc(N)c2c(-c3ccc(NC(=O)C(O)c4cc(F)cc(F)c4)c(F)c3F)cn(C)c2n1 (single isomer, unassigned) [Example 113, N-(4-(4-amino-2,7-dimethyl-7H-pyrrolo[2,3-d]pyrimidin-5-yl)-2,3-difluorophenyl)-2-(3,5-difluorophenyl)-2-hydroxyacetamide] | 1 to 25 nM | 1 to 25 nM |  |
| Cc1cc(NC(=O)Cc2cccc(Cl)c2)ccc1-c1cn(C)c2ncnc(N)c12 [Example 150, N-(4-(4-amino-7-methyl-7H-pyrrolo[2,3-d]pyrimidin-5-yl)-3-methylphenyl)-2-(3-chlorophenyl)acetamide] | 1 to 25 nM |  | 26 to 50 nM |
| CCc1cc(NC(=O)C(O)c2cccc(F)c2)ccc1-c1cn(C)c2ncnc(N)c12 (stereo not shown) [Example 17, N-(4-(4-amino-7-methyl-7H-pyrrolo[2,3-d]pyrimidin-5-yl)-3-ethylphenyl)-2-(3-fluorophenyl)-2-hydroxyacetamide] | 1 to 25 nM |  | 1 to 25 nM |
| Cc1nc(N)c2c(-c3ccc(NC(=O)C(O)c4cccc(F)c4)c(F)c3)cn(C)c2n1 (stereo not shown) [Example 90, N-(4-(4-amino-2,7-dimethyl-7H-pyrrolo[2,3-d]pyrimidin-5-yl)-2-fluorophenyl)-2-(3-fluorophenyl)-2-hydroxyacetamide] | 1 to 25 nM | 26 to 50 nM |  |
| CCc1ccc(CC(=O)Nc2ccc(-c3cn(C)c4ncnc(N)c34)c(C)c2)cc1 [Example 147, N-(4-(4-amino-7-methyl-7H-pyrrolo[2,3-d]pyrimidin-5-yl)-3-methylphenyl)-2-(4-ethylphenyl)acetamide] | 1 to 25 nM |  | 51 to 100 nM |
| CCc1ccccc1CC(=O)Nc1ccc(-c2cn(C)c3ncnc(N)c23)c(C)c1 [Example 145, N-(4-(4-amino-7-methyl-7H-pyrrolo[2,3-d]pyrimidin-5-yl)-3-methylphenyl)-2-(2-ethylphenyl)acetamide] | 1 to 25 nM |  | 26 to 50 nM |
| Cc1nc(N)c2c(-c3ccc(NC(=O)C(O)c4ccccc4C)cc3C)cn(C)c2n1 (stereo not shown) [Example 40, N-(4-(4-amino-2,7-dimethyl-7H-pyrrolo[2,3-d]pyrimidin-5-yl)-3-methylphenyl)-2-hydroxy-2-(o-tolyl)acetamide] | 26 to 50 nM |  | 101 to 250 nM |
| Cc1cc(NC(=O)C(O)c2ccccc2C)ccc1-c1cn(C)c2ncnc(N)c12 (stereo not shown) [Example 39, N-(4-(4-amino-7-methyl-7H-pyrrolo[2,3-d]pyrimidin-5-yl)-3-methylphenyl)-2-hydroxy-2-(o-tolyl)acetamide] | 1 to 25 nM |  | 26 to 50 nM |
| CCc1cc(NC(=O)C(O)c2cccc(F)c2)ccc1-c1cn(C)c2nc(C)nc(N)c12 (stereo not shown) [Example 69, N-(4-(4-amino-2,7-dimethyl-7H-pyrrolo[2,3-d]pyrimidin-5-yl)-3-ethylphenyl)-2-(3-fluorophenyl)-2-hydroxyacetamide] | 101 to 250 nM | 2000 to 3000 nM |  |
| Cc1nc(N)c2c(-c3ccc(NC(=O)C(O)c4cccc5cnn(C)c45)cc3C)cn(C)c2n1 (single isomer, unassigned) [Example 65, N-(4-(4-amino-2,7-dimethyl-7H-pyrrolo[2,3-d]pyrimidin-5-yl)-3-methylphenyl)-2-hydroxy-2-(1-methyl-1H-indazol-7-yl)acetamide] | 251 to 500 nM | 3000 to 4000 nM |  |
| CCc1cc(NC(=O)C(O)c2cccc(F)c2)ccc1-c1cn(C)c2nc(C)nc(N)c12 (stereo not shown) [Example 68, N-(4-(4-amino-2-2,7-dimethyl-7H-pyrrolo[2,3-d]pyrimidin-5-yl)-3-ethylphenyl)-2-(3-fluorophenyl)-2-hydroxyacetamide] | 1 to 25 nM | 26 to 50 nM |  |
| Cc1nc(N)c2c(-c3ccc(NC(=O)C(O)c4cccc(F)c4)c(F)c3F)cn(C)c2n1 (single isomer, unassigned) [Example 110, N-(4-(4-amino-2,7-dimethyl-7H-pyrrolo[2,3-d]pyrimidin-5-yl)-2,3-difluorophenyl)-2-(3-fluorophenyl)-2-hydroxyacetamide] | 1 to 25 nM | 1 to 25 nM |  |
| Cn1cc(-c2ccc(NC(=O)C(O)c3cccc(F)c3)cc2)c2c(N)ncnc21 (stereo not shown) [Example 29, N-(4-(4-amino-7-methyl-7H-pyrrolo[2,3-d]pyrimidin-5-yl)phenyl)-2-(3-fluorophenyl)-2-hydroxyacetamide] | 1 to 25 nM | 1 to 25 nM |  |
| Cc1cc(NC(=O)C(O)c2ccccc2)ccc1-c1cn(C)c2ncnc(N)c12 (stereo not shown) [Example 5, N-(4-(4-amino-7-methyl-7H-pyrrolo[2,3-d]pyrimidin-5-yl)-3-methylphenyl)-2-hydroxy-2-phenylacetamide] | 1 to 25 nM | 26 to 50 nM |  |
| Cc1nc(N)c2c(-c3cc(F)c(NC(=O)C(O)c4cccc(F)c4)cc3C)cn(C)c2n1 (single isomer, unassigned) [Example 121, N-(4-(4-amino-2,7-dimethyl-7H-pyrrolo[2,3-d]pyrimidin-5-yl)-2-fluoro-5-methylphenyl)-2-(3-fluorophenyl)-2-hydroxyacetamide] | 1 to 25 nM | 26 to 50 nM |  |
| Cc1cc(NC(=O)Cc2cccc3ncccc23)ccc1-c1cn(C)c2ncnc(N)c12 [Example 154, N-(4-(4-amino-7-methyl-7H-pyrrolo[2,3-d]pyrimidin-5-yl)-3-methylphenyl)-2-(quinolin-5-yl)acetamide] | 51 to 100 nM |  | 501 to 1000 nM |
| Cc1cccc(C(O)C(=O)Nc2ccc(-c3cn(C)c4ncnc(N)c34)c(C)c2)n1 (stereo not shown) [Example 60, N-(4-(4-amino-7-methyl-7H-pyrrolo[2,3-d]pyrimidin-5-yl)-3-methylphenyl)-2-hydroxy-2-(6-methylpyridin-2-yl)acetamide] | 1 to 25 nM |  | 101 to 250 nM |
| Cc1cc(NC(=O)C(C)(O)c2ccccc2)ccc1-c1cn(C)c2ncnc(N)c12 (stereo not shown) [Example 7, N-(4-(4-amino-7-methyl-7H-pyrrolo[2,3-d]pyrimidin-5-yl)-3-methylphenyl)-2-hydroxy-2-phenylpropanamide] | 51 to 100 nM |  | 101 to 250 nM |
| Cc1nc(N)c2c(-c3ccc(NC(=O)C(O)c4cc(F)cc(C(F)(F)F)c4)c(F)c3F)cn(C)c2n1 (single isomer, unassigned) [Example 115, N-(4-(4-amino-2,7-dimethyl-7H-pyrrolo[2,3-d]pyrimidin-5-yl)-2,3-difluorophenyl)-2-(3-fluoro-5-(trifluoromethyl)phenyl)-2-hydroxyacetamide] | 1 to 25 nM | 1 to 25 nM |  |
| Cc1cc(NC(=O)CC2CC2)ccc1-c1cn(C)c2ncnc(N)c12 [Example 163, N-(4-(4-amino-7-methyl-7H-pyrrolo[2,3-d]pyrimidin-5-yl)-3-methylphenyl)-2-cyclopropyl-acetamide] | > 5000 nM |  | > 5000 nM |
| Cc1cc(NC(=O)Nc2ccccc2)ccc1-c1cn(C)c2ncnc(N)c12 [Example 170, 1-(4-(4-amino-7-methyl-7H-pyrrolo[2,3-d]pyrimidin-5-yl)-3-methylphenyl)-3-phenylurea] | 1 to 25 nM |  | 101 to 250 nM |
| Cc1cc(NC(=O)C(O)c2cccc(F)c2)ccc1-c1cn(C)c2nc(C(C)C)nc(N)c12 (stereo not shown) [Example 25, N-(4-(4-amino-2-isopropyl-7-methyl-7H-pyrrolo[2,3-d]pyrimidin-5-yl)-3-methylphenyl)-2-(3-fluorophenyl)-2-hydroxyacetamide] | 101 to 250 nM |  | > 5000 nM |
| Cc1nc(N)c2c(-c3ccc(NC(=O)C(O)c4cccc(F)c4)cc3)cn(C)c2n1 (stereo not shown) [Example 23, N-(4-(4-amino-2,7-dimethyl-7H-pyrrolo[2,3-d]pyrimidin-5-yl)phenyl)-2-(3-fluorophenyl)-2-hydroxyacetamide] | 1 to 25 nM |  | 501 to 1000 nM |

Source: patent US20220356186A1, “PERK INHIBITING PYRROLOPYRIMIDINE COMPOUNDS” (HiberCell, Inc., priority 2019, published 2022)
